This is an account of results in US12187728B2 (Raze Therapeutics, Inc., priority 2015, dated 2025).

In the experiment the target is T1, Human MTHFD2 (Homo sapiens, UniProt P13995).
T1 construct: residues 36-350 in Uniport ID P13995; His6 (N); made in house; host or cells: E. coli
T1 sequence (P13995 36-350): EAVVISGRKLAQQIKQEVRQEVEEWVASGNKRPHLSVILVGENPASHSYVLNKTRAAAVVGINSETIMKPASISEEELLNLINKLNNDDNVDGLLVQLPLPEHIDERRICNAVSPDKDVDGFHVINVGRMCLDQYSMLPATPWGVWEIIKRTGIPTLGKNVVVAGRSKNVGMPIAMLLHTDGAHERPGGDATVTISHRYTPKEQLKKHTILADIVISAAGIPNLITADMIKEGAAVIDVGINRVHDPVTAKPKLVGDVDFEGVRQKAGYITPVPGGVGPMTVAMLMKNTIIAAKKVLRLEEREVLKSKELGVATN
Put plainly: MTHFD2 Activity Assay (dehydrogenase activity, diaphorase/resazurin coupled fluorescence). The experiment is classed as biochemical. The conditions noted are these: inhibitory activity (IC50 and/or binding constant); 0.2 nM MTHFD2, 11 concentrations. The gist of the method:
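His6-tagged MTHFD2 (res. 36-350), E. coli-expressed, at 0.2 nM preincubated with compound 15 min in Hepes pH 8.0/MgCl2/KH2PO4 buffer; 70 μM CH2-THF, 1 mM NAD+ added with resazurin/diaphorase, 30 min, EDTA stop. Resorufin fluorescence (ex 525/em 598); IC50 from 11-point 4-parameter fit.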
On the technique in general: Resazurin is reduced to fluorescent resorufin, in cell work by metabolically active cells.
By IC50 is commonly meant the point on the concentration scale where inhibition reaches its midpoint. A low value points to greater potency. As for `Cn1c(Nc2ccnc([C@@H]3C[C@H]3C(=O)O)c2)nc2c1c(=O)n(Cc1ccc(Cl)c(Cl)c1)c(=O)n2C` (single isomer, unassigned) [Example 300, (1R,2R)-2-(4-((1-(3,4-dichlorobenzyl)-3,7-dimethyl-2,6-dioxo-2,3,6,7-tetrahydro-1H-purin-8-yl)amino)pyridin-2-yl)cyclopropanecarboxylic acid or (1S,2S)-2-(4-((1-(3,4-dichlorobenzyl)-3,7-dimethyl-2,6-dioxo-2,3,6,7-tetrahydro-1H-purin-8-yl)amino)pyridin-2-yl)cyclopropanecarboxylic acid], the IC50 was in the range of 10 to 1000 nM.

Regarding `Cn1c(Nc2ccnc(CCC(=O)N3CCNCC3)n2)nc2c1c(=O)n(Cc1cc3c(Cl)cccc3[nH]1)c(=O)n2C` [Example 428, 1-((4-chloro-1H-indol-2-yl)methyl)-3,7-dimethyl-8-(2-(3-oxo-3-(piperazin-1-yl)propyl)pyrimidin-4-ylamino)-1H-purine-2,6(3H,7H)-dione], the IC50 was 10 to 1000 nM.

Take `Cn1c(NCC2(O)CCCCC2)nc2c1c(=O)n(Cc1ccc(C(F)(F)F)cc1)c(=O)n2C` [Example 107, 8-((1-hydroxycyclohexyl)methylamino)-3,7-dimethyl-1-(4-(trifluoromethyl)benzyl)-1H-purine-2,6(3H,7H)-dione]: the IC50 is over 10000 nM.

As to `Cn1c(Nc2ccc(CO)cc2)nc2c1c(=O)n(Cc1ccc(Cl)c(Cl)c1)c(=O)n2C` [Example 298, 1-(3,4-dichlorobenzyl)-8-((4-(hydroxymethyl)phenyl)amino)-3,7-dimethyl-3,7-dihydro-1H-purine-2,6-dione], the IC50 was in the range of 10 to 1000 nM.

Turning to `Cn1c(C(N)Cc2ccccc2)nc2c1c(=O)n(Cc1cc3c(Cl)cccc3[nH]1)c(=O)n2C` (centres unmarked) [Example 450, 8-(1-amino-2-phenylethyl)-1-((4-chloro-1H-indol-2-yl)methyl)-3,7-dimethyl-1H-purine-2,6(3H,7H)-dione], the IC50 is 10 to 1000 nM.

On to `CCn1c(=O)n(Cc2ccc(Cl)c(Cl)c2)c(=O)c2c1ncn2C` [Example 250, 1-(3,4-dichlorobenzyl)-3-ethyl-7-methyl-1H-purine-2,6(3H,7H)-dione], for which the IC50 is 5000 to 10000 nM.

For the compound `Cn1cnc2c1c(=O)n(Cc1ccc(Cl)c(C#N)c1)c(=O)n2C` [Example 256, 2-chloro-5-((3,7-dimethyl-2,6-dioxo-2,3,6,7-tetrahydro-1H-purin-1-yl)methyl)benzonitrile], the IC50 fell in the range of 1000 to 5000 nM.

In the case of `Cn1c(N[C@H]2CC[C@@H](O)C2)nc2c1c(=O)n(Cc1cc3ccccc3[nH]1)c(=O)n2C` (racemic) [Example 155, (±)-1-((1H-indol-2-yl)methyl)-8-((cis)-3-hydroxycyclopentylamino)-3,7-dimethyl-1H-purine-2,6(3H,7H)-dione], the IC50 lay in the range of 10 to 1000 nM.

As to `Cn1c(Nc2ccnc(CCC(=O)N3CCCC3)n2)nc2c1c(=O)n(Cc1cc3c(Cl)cccc3[nH]1)c(=O)n2C` [Example 417, 1-((4-chloro-1H-indol-2-yl)methyl)-3,7-dimethyl-8-(2-(3-oxo-3-(pyrrolidin-1-yl)propyl)pyrimidin-4-ylamino)-1H-purine-2,6(3H,7H)-dione], the IC50 lay in the range of 10 to 1000 nM.

Turning to `Cn1c(Cn2c(=O)c3c(nc(N[C@H]4CC[C@@H](O)C4)n3C)n(C)c2=O)cc2cc(Cl)ccc21` (racemic) [Example 178, (±)-1-((5-chloro-1-methyl-1H-indol-2-yl)methyl)-8-((cis)-3-hydroxycyclopentylamino)-3,7-dimethyl-1H-purine-2,6(3H,7H)-dione], the half-inhibitory concentration (IC50) fell in the range of 10 to 1000 nM.

`Cn1c(Nc2ccccc2C#N)nc2c1c(=O)n(Cc1ccc(Cl)c(Cl)c1)c(=O)n2C` [Example 142, 2-(1-(3,4-dichlorobenzyl)-3,7-dimethyl-2,6-dioxo-2,3,6,7-tetrahydro-1H-purin-8-ylamino)benzonitrile] came in with an IC50 of 1000 to 5000 nM.

With `Cn1c(Nc2ccc(C(N)=O)nc2)nc2c1c(=O)n(Cc1cc3c(Cl)cccc3[nH]1)c(=O)n2C` [Example 409, 5-(1-((4-chloro-1H-indol-2-yl)methyl)-3,7-dimethyl-2,6-dioxo-2,3,6,7-tetrahydro-1H-purin-8-ylamino)picolinamide], the IC50 was in the range of 10 to 1000 nM.

In turn, `Cn1c(NCc2ccncc2)nc2c1c(=O)n(Cc1ccc(Cl)c(Cl)c1)c(=O)n2C` [Example 118, 1-(3,4-dichlorobenzyl)-3,7-dimethyl-8-(pyridin-4-ylmethylamino)-1H-purine-2,6(3H,7H)-dione] came in with a concentration for half-maximal inhibition (IC50) of 1000 to 5000 nM.

With `Cn1c(N[C@@H]2CCC[C@@H]2C(=O)O)nc2c1c(=O)n(Cc1ccc(Cl)c(Cl)c1)c(=O)n2C` [Example 111, (1S,2R)-2-(1-(3,4-dichlorobenzyl)-3,7-dimethyl-2,6-dioxo-2,3,6,7-tetrahydro-1H-purin-8-ylamino)cyclopentanecarboxylic acid], the IC50 is 10 to 1000 nM.

In turn, `Cn1c(NCC(F)(F)F)nc2c1c(=O)n(Cc1ccc(Cl)c(Cl)c1)c(=O)n2C` [Example 278, 1-[(3,4-dichlorophenyl)methyl]-3,7-dimethyl-8-(2,2,2-trifluoroethylamino)purine-2,6-dione] registered an IC50 of 10 to 1000 nM.

Consider `COc1ccc2c(c1)cc(Cn1c(=O)c3c(ncn3C)n(C)c1=O)n2C` [Example 238, 1-((5-methoxy-1-methyl-1H-indol-2-yl)methyl)-3,7-dimethyl-1H-purine-2,6(3H,7H)-dione], for which the IC50 was over 10000 nM.

As to `Cn1c(N[C@H]2C[C@@H](CO)C2)nc2c1c(=O)n(Cc1ccc(Cl)c(Cl)c1)c(=O)n2C` [Example 261, (±)-1-(3,4-dichlorobenzyl)-8-((cis)-3-(hydroxymethyl)cyclobutylamino)-3,7-dimethyl-1H-purine-2,6(3H,7H)-dione], the IC50 lay in the range of 10 to 1000 nM.

As for `Cn1c(NCC(N)=O)nc2c1c(=O)n(Cc1cc3c(Cl)cccc3[nH]1)c(=O)n2C` [Example 360, 2-(1-((4-chloro-1H-indol-2-yl)methyl)-3,7-dimethyl-2,6-dioxo-2,3,6,7-tetrahydro-1H-purin-8-ylamino)acetamide], the IC50 was 10 to 1000 nM.

As for `Cn1c(C(N)C2CCCCC2)nc2c1c(=O)n(Cc1cc3c(Cl)cccc3[nH]1)c(=O)n2C` (centres unmarked) [Example 446, 8-[amino(cyclohexyl)methyl]-1-[(4-chloro-1H-indol-2-yl)methyl]-3,7-dimethyl-purine-2,6-dione], the half-inhibitory concentration (IC50) lay in the range of 10 to 1000 nM.

Compound `Cn1c(=O)n(Cc2ccc(Cl)c(Cl)c2)c(=O)c2[nH]cnc21` [Example 251, 1-(3,4-dichlorobenzyl)-3-methyl-1H-purine-2,6(3H,7H)-dione] yielded a half-maximal inhibitory concentration (IC50) of over 10000 nM.

In turn, `Cn1c(N[C@H]2CC[C@@H](C(=O)O)C2)nc2c1c(=O)n(Cc1ccc(Cl)c(Cl)c1)c(=O)n2C` [Example 64, (1R,3S)-3-(1-(3,4-dichlorobenzyl)-3,7-dimethyl-2,6-dioxo-2,3,6,7-tetrahydro-1H-purin-8-ylamino)cyclopentanecarboxylic acid] returned an IC50 of 10 to 1000 nM.

The compound `Cn1c(=O)n(Cc2ccc(Cl)c(Cl)c2)c(=O)c2c1nc(NC1CCCC(C(=O)O)C1)n2CCN` (centres unmarked) [Example 369, 3-(7-(2-aminoethyl)-1-(3,4-dichlorobenzyl)-3-methyl-2,6-dioxo-2,3,6,7-tetrahydro-1H-purin-8-ylamino)cyclohexanecarboxylic acid] gave an IC50 of 10 to 1000 nM.

The compound `Cn1c(NCCC(C)(C)O)nc2c1c(=O)n(Cc1ccc(Cl)c(Cl)c1)c(=O)n2C` [Example 45, 1-[(3,4-dichlorophenyl)methyl]-8-[(3-hydroxy-3-methylbutyl)amino]-3,7-dimethyl-2,3,6,7-tetrahydro-1H-purine-2,6-dione] came in with an IC50 of 10 to 1000 nM.
